# Measurements from patent publication US7815946B1, “Anti-diabetic and cholesterol lowering preparation from fenugreek seeds” (priority 2001, dated 2010).
# Columns and labels:
# diabetic rabbits [1] = assay: Comparison of Menthi, trigonelline and tolbutamide on glucose tolerance; format: in vivo, rabbit; conditions: 100 mg/kg/day for 3 days
# Method: The antidiabetic activity of GII (Menthi) and the alkaloid trigonelline, which can be isolated from fenugreek seeds, were compared. Diabetic rabbits were administered the same dose (100 mg/kg/day) daily for 3 days. The activity of these two was also compared with a standard drug tolbutamide all at the same dosage schedule of 100 mg/Kg/day for 3 days.
# diabetic rabbits [2] = conditions: cited from earlier work
# [3] = reported by Mishinsky; cited from earlier work
Compound,% Decrease in Blood Glucose Level at 2.5 Hours in GTT (diabetic rabbits [1]) [%],blood glucose during GTT (diabetic rabbits [2]),hypoglycemic activity [3]
"CCCCNC(=O)NS(=O)(=O)c1ccc(C)cc1 [Tolbutamide, tolbutamide]",25,,
fenugreekine,,could not lower blood glucose,
"C[n+]1cccc(C(=O)[O-])c1 [Trigonelline, trigonelline]",16,,only mild and transient hypoglycemic activity
